Patent US12246004B2, “Therapeutic treatment of microsatellite unstable cancers” (THE BROAD INSTITUTE, INC., priority 2018, dated 2025)

What was measured:
KM12 xenografts = assay: KM12 xenograft growth with doxycycline-inducible shRNA; assay type: in vivo, mice; conditions: doxycycline induction of shRNA (FIG. 2D)
Procedure: Studies were approved by the Institutional Animal Care and Use Committee (IACUC) of the Broad Institute under animal protocol 0194-01-18. IACUC guidelines on the ethical use and care of animals were followed. For growth curves, 10^6 KM12 cells expressing WRN shRNA 1 or WRN-C911 shRNA 1 were inoculated subcutaneously into right hind flank of approximately 8-week-old female SCID Hairless Outbred (SHO) mice obtained from Charles River Laboratories. Tumors were measured twice weekly with calipers and the tumor volumes were calculated using the formula π/6×(width^2×length). When primary tumors reached around 100 mm^3, the mice were randomized onto Control Teklad Global 18% Protein Rodent Diet or Teklad Global 18% Protein Rodent Diet containing 625 mg kg^−1 doxycycline hyclate. Mice remained on their respective diets throughout the remainder of the study. Animal body weights were recorded twice weekly during the course of the study for body condition scoring. For the growth curves, n=5 (4 from days 15-18), 5, 4, 4 for WRN shRNA 1 without doxycycline, WRN shRNA 1 with doxycycline, WRN-C911 shRNA 1 without doxycycline, WRN-C911 shRNA 1 with doxycycline treatment, respectively. One mouse treated with KM12 cells with WRN shRNA 1 without doxycycline was euthanized before day 15 because of tumor ulceration. No experiments exceeded the maximal tumor volumes of 2,000 mm^3 set forth by the IACUC. […]

MSI cells = assay: Telomere PNA-FISH of metaphase spreads; assay type: cell-based; conditions: two MSI cell lines; 96 h after induction of shRNA
Procedure: (§1) In brief, 3×10^6 cells were plated in 10-cm dishes in the absence of doxycycline. For cells treated with doxycycline, 0.2 μg ml^−1 of doxycycline was added and refreshed every 48 h. Then, 96 h after adding doxycycline, cells were treated with 10 μg ml^−1 of colcemid for 3 h and then detached with trypsin. Half of the cell pellet was saved for immunoblot analysis. The other half of the cell pellet was treated with a hypotonic solution (60 mM KCl) and fixed with a 3:1 ratio of methanol:acidic acid. Metaphases were spread onto a slide and fixed with 3% formalin. The PNA-FISH probe ((CCCTAA)3 PNA probe (PNA Bio)) was applied to the slides and denatured at 85° C. for 3 min. The slides were washed with washing solution I (70% formamide, 0.1% Tween-20, 0.1% BSA in 10 mM Tris buffer, pH 7.5) twice and three times with washing solution II (150 mM NaCl, 0.1% Tween-20, 0.1% BSA in 50 mM Tris buffer, pH 7.5). Cy5-ATTCGTTGGAAACGGGA (SEQ ID NO: 28) was used to label centromeres. Images were captured with a Nikon Eclipse 80i microscope and processed with the NISElements BR software. In total, 30 to 60 metaphases were analyzed for cells of the indicated conditions. Two-tailed Student's 1-tests were performed (FIG. 4E). These experiments were performed twice.

MSS cells = assay: Telomere PNA-FISH of metaphase spreads; assay type: cell-based; conditions: two MSS cell lines; 96 h after induction of shRNA
Procedure: as §1

KM12 cells = assay: Luciferase competitive growth assay, rescue by ectopic WRN cDNA; assay type: cell-based
Procedure: The catalytically active version, exonuclease-dead (E84A), helicase-dead (K577M) and dually exonuclease and helicase-dead (E84A/K577M) versions of WRN cDNA were a gift from R. J. Monnat (Addgene, plasmids 46038, 46036, 46035 and 46037, respectively). […] The WRN sequence was cloned into a modified lentiviral expression vector, pLX_TRC209, under an EF1A promoter and modified to contain a neomycin-selectable marker. Sanger sequencing of the vectors and genomic DNA after integration were performed to confirm sequence identity. Lentivirus was produced as described below and transduced into dually Cas9-Firefly-luciferase-expressing KM12 cells to create stable ectopic WRN cDNA-expressing cell lines.
Dual Cas9-Firefly-luciferase- and Renilla-luciferase-expressing cells were generated by transduction of Firefly-luciferase cDNA and Renilla-luciferase cDNA, respectively, in a pLX_TRC313 lentiviral expression vector containing a hygromycin-resistance gene. After hygromycin selection, these two versions of the cell line were co-seeded in a 96 well plate at the following densities per well for each version: ES2 2×10^3 cells per well, OVK18, 3×10^3 cells per well; SW620, 4×10^3 cells per well; KM12, 4×10^3 cells per well. The following day, cells were transduced with lentivirus expressing the indicated sgRNA and a puromycin-resistance gene in six replicates. The day following viral transduction, the medium was changed to include puromycin. Cells were split and assayed with the Dual-Glo Luciferase Assay System (Promega) per the manufacturer's recommendations every 3-4 days. Luminescence was determined using the Perkin Elmer EnVision 2105. Values are presented as the ratio of Firefly to Renilla-luciferase luminescence signal per condition and normalized to the mean of the corresponding negative control sgRNAs for each cell line. Experiments in FIG. 2C and FIG. 7B were performed three times. Two-tailed Student's t-tests were performed when comparing single sgRNAs (FIG. 2C). Two-way ANOVAs were performed when multiple WRN sgRNAs were compared to negative controls (FIG. 7B).

WRN = assay: Immunoblot of WRN levels after sgRNA transduction; assay type: cell-based; conditions: KM12 cells expressing WRN cDNA (FIG. 2B)
Procedure: For immunoblotting, cells were lysed in RIPA buffer (Sigma-Aldrich) supplemented with complete Protease Inhibitor Cocktail (Roche, 11697498001) and a Halt Phosphatase Inhibitor Cocktail (Thermo Fischer Scientific, 78428). For etoposide and hydroxyurea treatment (FIG. 4A), cells were treated with 10 μM etoposide and 1 mM hydroxyurea, respectively, 6 h before collection. Lysates were fractionated in 4-12% Bis-Tris gels (Invitrogen), which was then transferred to PVDF membranes (Immobilon-FL PVDF Millipore, IPFL00010) and blocked for an hour with Odyssey Blocking Buffer (PBS) (LI-COR Biosciences, 927-40000). Types of primary antibodies and the dilutions used for immunoblotting were as follows: anti-phospho-CHK2 (T68) (R&D Systems, AF1626, 1:400); anti-total CHK2 (Cell Signaling Technology, 3440, 1:1,000); anti-[…] (Cell Signaling Technology, 9718, 1:1,000); anti-GAPDH (Cell Signaling Technology, 5174, 1:1,000); anti-MLH1 (Cell Signaling Technology, 3515, 1:1,000); anti-MSH3 (BD Biosciences, 611390, 1:400); anti-WRN (Novus Biologicals, nb100-472, 1:1,000). The following secondary antibodies were used: goat anti-rabbit IRDye 800CW (LI-COR, 926-32211, 1:5,000), goat anti-rabbit IRDye 680LT (LI-COR, 926-68021), and goat anti-mouse IRDye 800CW (LI-COR, 926-32210). […]

Row | Substance | Tumor growth (KM12 xenografts) | Chromosomal integrity (DSBs, fragmentation) in metaphase spreads (MSI cells) | Chromosomal integrity (DSBs, fragmentation) in metaphase spreads (MSS cells) | Rescue of viability by WRN cDNA (KM12 cells; Cas9-expressing KM12 cells, 9 days after sgRNA transduction (FIG. 2C)) | Rescue of viability by exonuclease-dead (E84A) WRN cDNA (KM12 cells; KM12 cells (FIGS. 2B and 2C)) | Rescue of viability by helicase-dead (K577M) WRN cDNA (KM12 cells; KM12 cells (FIGS. 2B and 2C)) | Silencing of endogenous versus exogenous WRN (immunoblot) (WRN)
1 | WRN shRNA 1: shRNA targeting WRN chosen from project DRIVE, CAGCACTGCCAATGGTTCCAA; SEQ ID NO: 5 | significantly impaired tumor growth | induced DSBs and fragmentation throughout chromosomes | but not in MSS cells | – | – | – | –
2 | WRN EIJ sgRNA: sgRNA targeting a WRN exon-intron junction, target sequence AGCACGTACATAAGCATCAG (SEQ ID NO: 4) (only the sgRNA target sequence is given, scaffold and chemistry not given here, further chemistry not given here) | – | – | – | rescued | did not attenuate rescue | prevented rescue | silencing endogenous WRN, but not exogenous WRN cDNA
